For three compounds, LD50 results are on record in patent US3978045A, “N^2 -dansyl-L-arginine derivatives, and the pharmaceutically acceptable acid addition salts thereof” (priority 1973, dated 1976).

SMILES strings stand for the structures.

This data set is described as follows: Acute toxicity (LD50) by oral administration in mice. Conditions: mouse, in vivo, per kilogram of body weight.
Turning to `CCC1CCN(C(=O)[C@H](CCCNC(=N)N)NS(=O)(=O)c2cccc3c(N(C)C)cccc23)CC1` [4-ethyl-1-(N^2-dansyl-L-arginyl)piperidine], the LD50 was found to be 1380 mg/kg.

Regarding `CC1CCN(C(=O)[C@H](CCCNC(=N)N)NS(=O)(=O)c2cccc3c(N(C)C)cccc23)CC1` [4-methyl-1-(N^2-dansyl-L-arginyl)piperidine], the LD50 was 1310 mg/kg.

Regarding `CCCCOC(=O)[C@H](CCCNC(=N)N)NS(=O)(=O)c1cccc2c(N(C)C)cccc12` [N^2 -dansyl-L-arginine n-butyl ester], the LD50 was greater than 6000 mg/kg.
